Measured values taken from patent US10807992B2, “Single enantiomer antiparasitic compounds” (priority 2017, dated 2020).

Assays:
[1] = system: Ctenocephalides felis; experiment: In vitro ingestion activity against fleas (artificial feeding, bovine blood); conditions: for mortality at 0.003 ppm: Trial 3, dose 0.003 ppm; for mortality at 0.012 ppm: Trial 3, dose 0.012 ppm; for mortality at 0.049 ppm: Trial 3, dose 0.049 ppm; for mortality at 0.2 ppm: Trial 3, dose 0.20 ppm; for mortality at 0.78 ppm: Trial 3, dose 0.78 ppm; for mortality at 3.125 ppm: Trial 3, dose 3.125 ppm; for mortality at 12.5 ppm: Trial 3, dose 12.5 ppm; for mortality at 50 ppm: Trial 3, dose 50 ppm
Method: (§1) Ctenocephalides felis (Avista Pharma, Inc., RTP, NC), 1-7days post hatch, held in an environmental chamber at 24° C., 85% humidity.
For flea ingestion tests, serial dilutions of the compound stock were performed using DMSO to achieve the desired range for EC50 and EC90 determination. An aliquot of each compound dilution was added to organic bovine blood with a final DMSO concentration of 0.5% and placed in an artificial feeding container.
(§2) Compounds tested were C1 racemate, the C1 (R) enantiomer, and the C1 (S) enantiomer. For Trial 3, the C1 (R) enantiomer and the C1 (S) enantiomer were further chiral purified to achieve >99% purity.
(§3) For both contact and ingestion assays, ten newly emerged unfed adult fleas, 0-7 days old Ctenocephalides felis, from a laboratory colony, were aspirated into each vial or cage. The test vials for contact assays were held in an environmental chamber at 24° C., 80% humidity with light/dark cycles (12 hours each). The cages for flea ingestion assays were held in a temperature-controlled artificial feeding apparatus to allow continual access to organic bovine blood containing the desired concentration of compound. Fresh aliquots of compound-spiked bovine blood were provided daily for the duration of the study.
(§4) Fleas were evaluated for percent mortality at various time points between 2 hours and 48 hours post infestation. Fleas showing normal movement and/or jumping ability were considered viable and those showing no movement after tapping the vials were scored as dead.

[2] = system: Ctenocephalides felis; experiment: In vitro contact activity against fleas (coated substrate); conditions: for mortality at 0.006 ppm: Trial 3, dose 0.006 ppm; for mortality at 0.024 ppm: Trial 3, dose 0.024 ppm; for mortality at 0.098 ppm: Trial 3, dose 0.098 ppm; for mortality at 0.39 ppm: Trial 3, dose 0.39 ppm; for mortality at 1.56 ppm: Trial 3, dose 1.56 ppm; for mortality at 6.25 ppm: Trial 3, dose 6.25 ppm; for mortality at 25 ppm: Trial 3, dose 25 ppm; for mortality at 100 ppm: Trial 3, dose 100 ppm
Method: as §1
For flea contact tests, vial caps were pre-drilled with a single hole in the center of each cap to allow air exchange. A filter paper (Whatman Grade 540 2.1 cm) was placed in the lid of each vial. Pipe cleaners cut to 0.5 inches were inserted in each test vial. An aliquot was taken from each compound stock and added to an acetone/triton solution to achieve the desired top concentrations for the study. Serial dilutions were conducted from the top dose (i.e. 100 ppm) to achieve the desired concentration for EC50 and EC90 determination. The final DMSO concentration was 0.5%. A 75 μL aliquot of each compound formulation was added to each 0.5 inch pipe cleaner contained in the treatment vial. The vials were loosely capped and allowed to dry for a minimum of four hours in a chemical fume hood.
as §2, §3, §4

O=C(CC(F)(F)F)N1CC2(C1)OCc1cc(C3=NS[C@](c4cc(Cl)c(F)c(Cl)c4)(C(F)(F)F)C3)ccc12 [C1 (R) enantiomer, (R)-1-[6-[5-(3,5-dichloro-4-fluoro-phenyl)-5-(trifluoromethyl)-4H-isothiazol-3-yl]spiro[1H-isobenzofuran-3,3′-azetidine]-1′-yl]-3,3,3-trifluoro-propan-1-one]
mortality at 0.003 ppm ([1]; 6 h, Rep1): 0% | mortality at 0.003 ppm ([1]; 6 h, Rep2): 0% | mortality at 0.012 ppm ([1]; 6 h, Rep1): 0% | mortality at 0.012 ppm ([1]; 6 h, Rep2): 0% | mortality at 0.049 ppm ([1]; 6 h, Rep1): 0% | mortality at 0.049 ppm ([1]; 6 h, Rep2): 0% | mortality at 0.2 ppm ([1]; 6 h, Rep1): 0% | mortality at 0.2 ppm ([1]; 6 h, Rep2): 0% | mortality at 0.78 ppm ([1]; 6 h, Rep1): 0% | mortality at 0.78 ppm ([1]; 6 h, Rep2): 0% | mortality at 3.125 ppm ([1]; 6 h, Rep1): 0% | mortality at 3.125 ppm ([1]; 6 h, Rep2): 20% | mortality at 12.5 ppm ([1]; 6 h, Rep1): 80% | mortality at 12.5 ppm ([1]; 6 h, Rep2): 40% | mortality at 50 ppm ([1]; 6 h, Rep1): 100% | mortality at 50 ppm ([1]; 6 h, Rep2): 100% | mortality at 0.003 ppm ([1]; 24 h, Rep1): 0% | mortality at 0.003 ppm ([1]; 24 h, Rep2): 0% | mortality at 0.012 ppm ([1]; 24 h, Rep1): 0% | mortality at 0.012 ppm ([1]; 24 h, Rep2): 0% | mortality at 0.049 ppm ([1]; 24 h, Rep1): 0% | mortality at 0.049 ppm ([1]; 24 h, Rep2): 0% | mortality at 0.2 ppm ([1]; 24 h, Rep1): 0% | mortality at 0.2 ppm ([1]; 24 h, Rep2): 0% | mortality at 0.78 ppm ([1]; 24 h, Rep1): 0% | mortality at 0.78 ppm ([1]; 24 h, Rep2): 0% | mortality at 3.125 ppm ([1]; 24 h, Rep1): 0% | mortality at 3.125 ppm ([1]; 24 h, Rep2): 0% | mortality at 12.5 ppm ([1]; 24 h, Rep1): 80% | mortality at 12.5 ppm ([1]; 24 h, Rep2): 40% | mortality at 50 ppm ([1]; 24 h, Rep1): 100% | mortality at 50 ppm ([1]; 24 h, Rep2): 100% | mortality at 0.003 ppm ([1]; 48 h, Rep1): 0% | mortality at 0.003 ppm ([1]; 48 h, Rep2): 0% | mortality at 0.012 ppm ([1]; 48 h, Rep1): 0% | mortality at 0.012 ppm ([1]; 48 h, Rep2): 0% | mortality at 0.049 ppm ([1]; 48 h, Rep1): 0% | mortality at 0.049 ppm ([1]; 48 h, Rep2): 0% | mortality at 0.2 ppm ([1]; 48 h, Rep1): 0% | mortality at 0.2 ppm ([1]; 48 h, Rep2): 0% | mortality at 0.78 ppm ([1]; 48 h, Rep1): 0% | mortality at 0.78 ppm ([1]; 48 h, Rep2): 0% | mortality at 3.125 ppm ([1]; 48 h, Rep1): 0% | mortality at 3.125 ppm ([1]; 48 h, Rep2): 0% | mortality at 12.5 ppm ([1]; 48 h, Rep1): 90% | mortality at 12.5 ppm ([1]; 48 h, Rep2): 60% | mortality at 50 ppm ([1]; 48 h, Rep1): 100% | mortality at 50 ppm ([1]; 48 h, Rep2): 100% | mortality at 0.006 ppm ([2]; 6 h, Rep1): 0% | mortality at 0.006 ppm ([2]; 6 h, Rep2): 0% | mortality at 0.024 ppm ([2]; 6 h, Rep1): 0% | mortality at 0.024 ppm ([2]; 6 h, Rep2): 0% | mortality at 0.098 ppm ([2]; 6 h, Rep1): 0% | mortality at 0.098 ppm ([2]; 6 h, Rep2): 0% | mortality at 0.39 ppm ([2]; 6 h, Rep1): 0% | mortality at 0.39 ppm ([2]; 6 h, Rep2): 0% | mortality at 1.56 ppm ([2]; 6 h, Rep1): 0% | mortality at 1.56 ppm ([2]; 6 h, Rep2): 0% | mortality at 6.25 ppm ([2]; 6 h, Rep1): 0% | mortality at 6.25 ppm ([2]; 6 h, Rep2): 0% | mortality at 25 ppm ([2]; 6 h, Rep1): 0% | mortality at 25 ppm ([2]; 6 h, Rep2): 0% | mortality at 100 ppm ([2]; 6 h, Rep1): 0% | mortality at 100 ppm ([2]; 6 h, Rep2): 0% | mortality at 0.006 ppm ([2]; 24 h, Rep1): 0% | mortality at 0.006 ppm ([2]; 24 h, Rep2): 0% | mortality at 0.024 ppm ([2]; 24 h, Rep1): 0% | mortality at 0.024 ppm ([2]; 24 h, Rep2): 0% | mortality at 0.098 ppm ([2]; 24 h, Rep1): 0% | mortality at 0.098 ppm ([2]; 24 h, Rep2): 0% | mortality at 0.39 ppm ([2]; 24 h, Rep1): 0% | mortality at 0.39 ppm ([2]; 24 h, Rep2): 0% | mortality at 1.56 ppm ([2]; 24 h, Rep1): 0% | mortality at 1.56 ppm ([2]; 24 h, Rep2): 0% | mortality at 6.25 ppm ([2]; 24 h, Rep1): 0% | mortality at 6.25 ppm ([2]; 24 h, Rep2): 0% | mortality at 25 ppm ([2]; 24 h, Rep1): 0% | mortality at 25 ppm ([2]; 24 h, Rep2): 0% | mortality at 100 ppm ([2]; 24 h, Rep1): 0% | mortality at 100 ppm ([2]; 24 h, Rep2): 0% | mortality at 0.006 ppm ([2]; 48 h, Rep1): 0% | mortality at 0.006 ppm ([2]; 48 h, Rep2): 0% | mortality at 0.024 ppm ([2]; 48 h, Rep1): 0% | mortality at 0.024 ppm ([2]; 48 h, Rep2): 0% | mortality at 0.098 ppm ([2]; 48 h, Rep1): 0% | mortality at 0.098 ppm ([2]; 48 h, Rep2): 0% | mortality at 0.39 ppm ([2]; 48 h, Rep1): 0% | mortality at 0.39 ppm ([2]; 48 h, Rep2): 0% | mortality at 1.56 ppm ([2]; 48 h, Rep1): 0% | mortality at 1.56 ppm ([2]; 48 h, Rep2): 0% | mortality at 6.25 ppm ([2]; 48 h, Rep1): 0% | mortality at 6.25 ppm ([2]; 48 h, Rep2): 0% | mortality at 25 ppm ([2]; 48 h, Rep1): 0% | mortality at 25 ppm ([2]; 48 h, Rep2): 0% | mortality at 100 ppm ([2]; 48 h, Rep1): 0% | mortality at 100 ppm ([2]; 48 h, Rep2): 0%
